Patent US12673936B2, “Isoindolinone compounds, and uses thereof” (HANGZHOU GLUBIO PHARMACEUTICAL CO., LTD., priority 2021, dated 2026)

Experiments:
HiBiT tagged CK1α = HiBiT tagged CK1α (Homo sapiens, UniProt P48729+Q96SW2); test: CK1α degradation assay (HiBiT assay); format: cell-based; settings: 20 hours; for Dmax: HT-1080, HT-1080 cells; for DC50: concentration at 50% CK1α degradation
Method: (§1) CK1α and GSPT1 Degradation Assay (HiBiT Assay) The following is an example of an assay that can be used to determine the dose-dependent CK1α and GSPT1 degradation activities of test compounds in a human cell line such as HT-1080 ([…]). HT-1080 cells stably overexpressing wild-type CRBN, GSPT1A(1-138)/G575N mutant and HiBiT tagged CK1α or GSPT1 were seeded into 384-well plates (Cat #3764, Corning) pre-spotted with DMSO or test compounds. Increasing concentrations of test compounds (ranging from 3.162×10^-4 μM to 10 μM at a 3.16-fold increment) or DMSO were dispensed into an empty 384-well plate using an Echo Acoustic Liquid Handler (Beckman Coulter). About 10,000 cells in complete DMEM cell culture media were seeded per well. […] Luminescence was then measured with an EnVision plate reader (PerkinElmer) or a PHERAstar plate reader (BMG Labtech). All CK1α or GSPT1 degradation curves were processed using Collaborative Drug Discovery Vault softwares (Burlingame, CA., www.collaborativedrug.com). CK1α or GSPT1 levels in compound-treated wells were normalized to that of DMSO control and expressed as Percent of Control (PoC, y). […]

HiBiT tagged GSPT1 = HiBiT tagged GSPT1 (Homo sapiens, UniProt P15170+Q96SW2); test: GSPT1 degradation assay (HiBiT assay); format: cell-based; settings: 20 hours, maximum GSPT1 degradation; for Dmax: HT-1080, HT-1080 cells
Sequence of HiBiT tagged GSPT1 (P15170 whole entry): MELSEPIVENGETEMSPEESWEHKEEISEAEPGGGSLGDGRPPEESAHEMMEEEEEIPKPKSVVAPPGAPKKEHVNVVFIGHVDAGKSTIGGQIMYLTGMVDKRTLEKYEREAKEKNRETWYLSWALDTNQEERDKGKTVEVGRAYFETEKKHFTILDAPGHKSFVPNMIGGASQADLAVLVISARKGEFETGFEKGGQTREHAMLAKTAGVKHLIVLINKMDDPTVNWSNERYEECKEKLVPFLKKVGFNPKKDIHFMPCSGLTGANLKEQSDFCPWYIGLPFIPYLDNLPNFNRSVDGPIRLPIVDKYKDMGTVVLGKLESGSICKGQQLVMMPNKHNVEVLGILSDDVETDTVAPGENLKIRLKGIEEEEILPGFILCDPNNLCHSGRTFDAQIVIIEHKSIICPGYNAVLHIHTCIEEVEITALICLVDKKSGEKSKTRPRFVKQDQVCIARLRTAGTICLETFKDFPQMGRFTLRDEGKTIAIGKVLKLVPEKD
Sequence of HiBiT tagged GSPT1 (Q96SW2 whole entry): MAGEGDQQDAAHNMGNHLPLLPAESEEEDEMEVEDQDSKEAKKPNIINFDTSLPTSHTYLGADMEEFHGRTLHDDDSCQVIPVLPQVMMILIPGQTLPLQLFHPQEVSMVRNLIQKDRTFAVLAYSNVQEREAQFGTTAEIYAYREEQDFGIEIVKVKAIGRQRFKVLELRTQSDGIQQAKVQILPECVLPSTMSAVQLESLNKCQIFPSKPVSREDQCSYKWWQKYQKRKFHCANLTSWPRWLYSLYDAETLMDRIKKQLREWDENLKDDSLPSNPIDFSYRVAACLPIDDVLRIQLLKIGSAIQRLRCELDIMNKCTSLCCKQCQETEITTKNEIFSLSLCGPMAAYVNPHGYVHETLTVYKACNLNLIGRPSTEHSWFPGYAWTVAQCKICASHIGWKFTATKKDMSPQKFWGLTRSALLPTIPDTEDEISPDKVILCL
Sequence of HiBiT tagged GSPT1 (Q16531 whole entry partner): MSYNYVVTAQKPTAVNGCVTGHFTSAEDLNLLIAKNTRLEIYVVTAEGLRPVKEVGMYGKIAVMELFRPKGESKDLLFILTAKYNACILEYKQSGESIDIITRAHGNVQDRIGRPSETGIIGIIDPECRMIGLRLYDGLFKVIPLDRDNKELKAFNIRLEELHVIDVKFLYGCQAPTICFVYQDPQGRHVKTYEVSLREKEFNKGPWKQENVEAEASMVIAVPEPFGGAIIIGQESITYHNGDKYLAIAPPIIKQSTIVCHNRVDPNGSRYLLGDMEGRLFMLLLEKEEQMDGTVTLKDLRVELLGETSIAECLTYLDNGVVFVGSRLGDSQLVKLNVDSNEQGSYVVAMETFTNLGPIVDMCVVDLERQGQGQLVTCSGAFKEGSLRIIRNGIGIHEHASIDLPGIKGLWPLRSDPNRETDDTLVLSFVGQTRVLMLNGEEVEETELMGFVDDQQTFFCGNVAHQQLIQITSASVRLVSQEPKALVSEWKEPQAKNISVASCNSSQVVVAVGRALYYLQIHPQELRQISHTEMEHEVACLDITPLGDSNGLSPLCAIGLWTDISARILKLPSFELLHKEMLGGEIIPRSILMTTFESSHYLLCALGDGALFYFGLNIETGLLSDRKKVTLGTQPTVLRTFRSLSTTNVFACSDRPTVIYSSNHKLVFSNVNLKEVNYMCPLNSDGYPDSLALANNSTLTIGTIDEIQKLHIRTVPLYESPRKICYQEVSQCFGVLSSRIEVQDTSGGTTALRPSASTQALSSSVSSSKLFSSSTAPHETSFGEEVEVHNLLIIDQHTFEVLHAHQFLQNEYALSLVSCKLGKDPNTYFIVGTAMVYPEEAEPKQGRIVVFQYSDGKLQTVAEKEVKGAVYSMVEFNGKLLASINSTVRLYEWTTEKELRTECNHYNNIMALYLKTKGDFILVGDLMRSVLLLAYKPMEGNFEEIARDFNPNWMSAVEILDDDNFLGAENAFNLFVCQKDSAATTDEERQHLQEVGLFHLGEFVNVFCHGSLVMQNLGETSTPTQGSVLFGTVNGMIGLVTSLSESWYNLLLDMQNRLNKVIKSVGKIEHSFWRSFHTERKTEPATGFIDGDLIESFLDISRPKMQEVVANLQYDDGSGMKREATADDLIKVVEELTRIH
Method: as §1

Sequence of HiBiT tagged CK1α (P48729 whole entry): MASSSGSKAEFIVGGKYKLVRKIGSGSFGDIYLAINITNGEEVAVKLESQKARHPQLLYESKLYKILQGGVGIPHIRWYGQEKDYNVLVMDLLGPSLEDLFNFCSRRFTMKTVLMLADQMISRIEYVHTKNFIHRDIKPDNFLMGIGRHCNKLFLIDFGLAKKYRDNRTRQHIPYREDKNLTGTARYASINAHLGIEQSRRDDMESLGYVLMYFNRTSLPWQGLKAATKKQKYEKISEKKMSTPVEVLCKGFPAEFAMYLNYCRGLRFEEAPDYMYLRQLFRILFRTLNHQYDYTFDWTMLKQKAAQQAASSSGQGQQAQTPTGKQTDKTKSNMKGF
Sequence of HiBiT tagged CK1α (Q96SW2 whole entry): as the sequence (Q96SW2 whole entry) above
Sequence of HiBiT tagged CK1α (Q16531 whole entry partner): as the sequence (Q16531 whole entry partner) above

| Dmax (HiBiT tagged CK1α; maximum CK1α degradation) [%] | DC50 (HiBiT tagged CK1α; HT-1080 cells) [nM] | Dmax (HiBiT tagged GSPT1) [%] | HiBiT CK1α: Dmax (HiBiT tagged CK1α; HT-1080 cells, maximum CK1α degradation) [%] | HiBiT GSPT1: Dmax (HiBiT tagged GSPT1; HT-1080 cells) [%] | Structure (SMILES) |
| --- | --- | --- | --- | --- | --- |
| 60.8 | 706 | 36 | – | – | O=C1CCC(N2Cc3cc(C(=O)N[C@H](c4ccc(F)cc4)C4CC4)ccc3C2=O)C(=O)N1 (stereo in doubt) [Compound 10, N-((*S)-cyclopropyl(4-fluorophenyl)methyl)-2-(2,6-dioxopiperidin-3-yl)-1-oxoisoindoline-5-carboxamide] |
| 64.7 | 308 | 23.4 | – | – | O=C1CCC(N2Cc3cc(C(=O)N[C@H](c4ccccc4F)C4CC4)ccc3C2=O)C(=O)N1 (stereo in doubt) [Compound 11, N-((*S)-cyclopropyl(2-fluorophenyl)methyl)-2-(2,6-dioxopiperidin-3-yl)-1-oxoisoindoline-5-carboxamide] |
| 64.7 | 140 | 36.8 | – | – | O=C1CCC(N2Cc3cc(C(=O)N[C@H](c4ccccc4Cl)C4CC4)ccc3C2=O)C(=O)N1 (stereo in doubt) [Compound 12, N-((*S)-(2-chlorophenyl)(cyclopropyl)methyl)-2-(2,6-dioxopiperidin-3-yl)-1-oxoisoindoline-5-carboxamide] |
| 65.9 | 293 | 37 | – | – | O=C1CCC(N2Cc3cc(C(=O)N[C@H](c4ccc(F)cc4Cl)C4CC4)ccc3C2=O)C(=O)N1 (stereo in doubt) [Compound 13, N-((*S)-(2-chloro-4-fluorophenyl)(cyclopropyl)-yl)methyl)-2-(2,6-dioxopiperidin-3-yl)-1-oxoisoindoline-5-carboxamide] |
| 68.1 | 123 | 49.3 | – | – | O=C1CCC(N2Cc3cc(C(=O)N[C@H](c4c(F)cccc4F)C4CC4)ccc3C2=O)C(=O)N1 (stereo in doubt) [Compound 17, N-((*S)-cyclopropyl(2,6-difluorophenyl)methyl)-2-(2,6-dioxopiperidin-3-yl)-1-oxoisoindoline-5-carboxamide] |
| 66 | 137 | 58.5 | – | – | O=C1CCC(N2Cc3cc(C(=O)N[C@H](c4ncccc4Cl)C4CCC4)ccc3C2=O)C(=O)N1 (stereo in doubt) [Compound 18, N-((*S)-(3-chloropyridin-2-yl)(cyclobutyl)methyl)-2-(2,6-dioxopiperidin-3-yl)-1-oxoisoindoline-5-carboxamide] |
| 60.6 | 132 | 20.6 | – | – | CN1CCN(c2ccc([C@@H](NC(=O)c3ccc4c(c3)CN(C3CCC(=O)NC3=O)C4=O)C3CCC3)cc2)CC1 (stereo in doubt) [Compound 21, N-((*S)-cyclobutyl(4-(4-methylpiperazin-1-yl)phenyl)methyl)-2-(2,6-dioxopiperidin-3-yl)-1-oxoisoindoline-5-carboxamide] |
| – | 363 | – | 63.2 | 63.1 | O=C1CCC(N2Cc3cc(C(=O)N[C@H](c4ncccc4F)C4CCC4)ccc3C2=O)C(=O)N1 (stereo in doubt) [Compound 24, N-((*S)-cyclobutyl(3-fluoropyridin-2-yl)methyl)-2-(2,6-dioxopiperidin-3-yl)-1-oxoisoindoline-5-carboxamide] |
| 54.5 | 1580 | 48.4 | – | – | O=C1CCC(N2Cc3cc(C(=O)N[C@@H](c4cccc(F)c4)C4CC4)ccc3C2=O)C(=O)N1 (stereo in doubt) [Compound 25, N-((*R)-cyclopropyl(3-fluorophenyl)methyl)-2-(2,6-dioxopiperidin-3-yl)-1-oxoisoindoline-5-carboxamide] |
| 58.4 | 417 | 30.7 | – | – | O=C1CCC(N2Cc3cc(C(=O)N[C@H](c4cccc(F)c4)C4CC4)ccc3C2=O)C(=O)N1 (stereo in doubt) [Compound 26, N-((*S)-cyclopropyl(3-fluorophenyl)methyl)-2-(2,6-dioxopiperidin-3-yl)-1-oxoisoindoline-5-carboxamide] |
| 59.3 | 345 | 40.3 | – | – | O=C1CCC(N2Cc3cc(C(=O)N[C@@H](c4cccc(Cl)c4)C4CC4)ccc3C2=O)C(=O)N1 (stereo in doubt) [Compound 27, N-((*R)-(3-chlorophenyl)(cyclopropyl)methyl)-2-(2,6-dioxopiperidin-3-yl)-1-oxoisoindoline-5-carboxamide] |
| 60.1 | 1150 | 70.8 | – | – | O=C1CCC(N2Cc3cc(C(=O)N[C@H](c4cccc(Cl)c4)C4CC4)ccc3C2=O)C(=O)N1 (stereo in doubt) [Compound 28, N-((*S)-(3-chlorophenyl)(cyclopropyl)methyl)-2-(2,6-dioxopiperidin-3-yl)-1-oxoisoindoline-5-carboxamide] |
| 58.8 | 553 | 22 | – | – | Cc1cccc([C@H](NC(=O)c2ccc3c(c2)CN(C2CCC(=O)NC2=O)C3=O)C2CC2)c1 (stereo in doubt) [Compound 29, N-((*R)-cyclopropyl(m-tolyl)methyl)-2-(2,6-dioxopiperidin-3-yl)-1-oxoisoindoline-5-carboxamide] |
| 47.9 | – | 62.1 | – | – | Cc1cccc([C@@H](NC(=O)c2ccc3c(c2)CN(C2CCC(=O)NC2=O)C3=O)C2CC2)c1 (stereo in doubt) [Compound 30, N-((*S)-cyclopropyl(m-tolyl)methyl)-2-(2,6-dioxopiperidin-3-yl)-1-oxoisoindoline-5-carboxamide] |
| 48.1 | – | 60 | – | – | COc1cccc([C@H](NC(=O)c2ccc3c(c2)CN(C2CCC(=O)NC2=O)C3=O)C2CC2)c1 (stereo in doubt) [Compound 31, N-((*R)-cyclopropyl(3-methoxyphenyl)methyl)-2-(2,6-dioxopiperidin-3-yl)-1-oxoisoindoline-5-carboxamide] |
| 59.3 | 198 | 36.3 | – | – | COc1cccc([C@@H](NC(=O)c2ccc3c(c2)CN(C2CCC(=O)NC2=O)C3=O)C2CC2)c1 (stereo in doubt) [Compound 32, N-((*S)-cyclopropyl(3-methoxyphenyl)methyl)-2-(2,6-dioxopiperidin-3-yl)-1-oxoisoindoline-5-carboxamide] |
| 56.3 | 1300 | 66.3 | – | – | O=C1CCC(N2Cc3cc(C(=O)N[C@@H](c4cccc(C(F)(F)F)c4)C4CC4)ccc3C2=O)C(=O)N1 (stereo in doubt) [Compound 33, N-((*R)-cyclopropyl(3-(trifluoromethyl)phenyl)methyl)-2-(2,6-dioxopiperidin-3-yl)-1-oxoisoindoline-5-carboxamide] |
| 59.5 | 446 | 25.8 | – | – | O=C1CCC(N2Cc3cc(C(=O)N[C@H](c4cccc(C(F)(F)F)c4)C4CC4)ccc3C2=O)C(=O)N1 (stereo in doubt) [Compound 34, N-((*S)-cyclopropyl(3-(trifluoromethyl)phenyl)methyl)-2-(2,6-dioxopiperidin-3-yl)-1-oxoisoindoline-5-carboxamide] |
| 64.1 | 218 | 19.9 | – | – | O=C1CCC(N2Cc3cc(C(=O)N[C@H](c4ccc(F)cc4)C4CCOCC4)ccc3C2=O)C(=O)N1 (stereo in doubt) [Compound 38, 2-(2,6-dioxopiperidin-3-yl)-N-((*S)-(4-fluorophenyl)(tetrahydro-2H-pyran-4-yl)methyl)-1-oxoisoindoline-5-carboxamide] |
| 61 | 363 | 32.5 | – | – | Cc1ccccc1[C@@H](NC(=O)c1ccc2c(c1)CN(C1CCC(=O)NC1=O)C2=O)C1CC1 (stereo in doubt) [Compound 39, N-((*S)-cyclopropyl(o-tolyl)methyl)-2-(2,6-dioxopiperidin-3-yl)-1-oxoisoindoline-5-carboxamide] |
| 49.7 | – | 16.5 | – | – | O=C1CCC(N2Cc3cc(C(=O)N[C@H](c4ccc(F)cc4)C4COC4)ccc3C2=O)C(=O)N1 (stereo in doubt) [Compound 58, 2-(2,6-dioxo-3-piperidyl)-N-[(*S)-(4-fluorophenyl)-(oxetan-3-yl)methyl]-1-oxo-isoindoline-5-carboxamide] |
| 32.2 | – | 7.93 | – | – | O=C1CCC(N2Cc3cc(C(=O)N[C@@H](c4ccc(F)cc4)C4COC4)ccc3C2=O)C(=O)N1 (stereo in doubt) [Compound 59, 2-(2,6-dioxopiperidin-3-yl)-N-((*R)-(4-fluorophenyl)(oxetan-3-yl)methyl)-1-oxoisoindoline-5-carboxamide] |
| 66.7 | 162 | 27.9 | – | – | N#Cc1ccccc1[C@@H](NC(=O)c1ccc2c(c1)CN(C1CCC(=O)NC1=O)C2=O)C1CC1 (stereo in doubt) [Compound 64, N-((*S)-(2-cyanophenyl)(cyclopropyl)methyl)-2-(2,6-dioxopiperidin-3-yl)-1-oxoisoindoline-5-carboxamide] |
| 67.9 | 118 | 55.3 | – | – | O=C1CCC(N2Cc3cc(C(=O)N[C@@H](c4c(F)cccc4F)C4CCC4)ccc3C2=O)C(=O)N1 (stereo in doubt) [Compound 66, N-((*R)-cyclobutyl(2,6-difluorophenyl)methyl)-2-(2,6-dioxopiperidin-3-yl)-1-oxoisoindoline-5-carboxamide] |
